# Reference: US9833423B2 (KOREA RESEARCH INSTITUTE OF CHEMICAL TECHNOLOGY, priority 2011, dated 2017)
# Like-named read-outs stand apart in the source and are kept apart here.
# Experiments:
# [1] = system: Polio-virus 3; experiment: microbe, parasite or virus in culture; type: cell-based, Poliovirus 3; settings: Enterovirus C, HeLa37, 48 h, read-out: Polio-virus 3 EC50
# [2] = system: Coxsackie-virus B3; experiment: Cytopathic effect (CPE) inhibition assay; type: cell-based, Coxsackievirus B3; settings: Enterovirus B, HeLa37, 48 h
# [3] = system: Coxsackie-virus B1; experiment: Cytopathic effect (CPE) inhibition assay; type: cell-based, Coxsackievirus B1; settings: Enterovirus B, HeLa37, 48 h
# [4] = in vitro; settings: human
# [5] = cited from earlier work
# [6] = system: Entero-virus 70; experiment: Cytopathic effect (CPE) inhibition assay; type: cell-based, Enterovirus 70; settings: Enterovirus D, MRC5, 48 h; Table 3; MRC-5, 37° C., 2 days
# [7] = system: 48 rhinovirus types and coxsackievirus A21, B3, enterovirus 70 and echovirus 11; settings: cited from earlier work
# [8] = Cytotoxicity (CC50) in mock-infected cells, MTT assay, Experimental Example 1; settings: human
# [9] = in vivo; cited from earlier work
# [10] = in vivo; cited from earlier work; remark: listed apart in the source
# [11] = in vivo, cited from earlier work
# [12] = system: Coxsackie-virus A24 (HG); experiment: Cytopathic effect (CPE) inhibition assay; type: cell-based, Coxsackievirus A24; settings: Enterovirus C, MRC5, 48 h; Table 3; MRC-5, 37° C., 2 days
# [13] = Table 4, HeLa, 37° C., 2 days, read-out: Coxsackie-virus B3 EC50
# [14] = Table 4, HeLa, 37° C., 2 days, read-out: Coxsackie-virus B1 EC50
# [15] = read-out: Coxsackie-virus B1 EC50
# [16] = Table 3, HeLa, 37° C., 2 days, read-out: EC50 Coxsackie-virus B3
# [17] = Table 3, HeLa, 37° C., 2 days, read-out: EC50 Coxsackie-virus B1
# [18] = read-out: Coxsackie-virus B3 EC50
smiles,measurement,setting,value
"CCNC(=O)Oc1cc(C(C)C)ccc1C1(NC(C)=O)C(=O)c2cccc(N)c2C1=O (stereo not drawn) [Example 103, 2-(2-Acetamido-4-amino-1,3-dioxo-2,3-dihydro-1H-inden-2-yl)-5-isopropylphenyl ethylcarbamate]",EC50,[1],0.013 µg/mL
same,EC50,[2]; [13],< 0.01 µg/mL
same,EC50,[3]; [14],< 0.01 µg/mL
same,CC50,[4]; Picorna-virus CC50,26.3 µg/mL
CC(C)S(=O)(=O)n1c(N)nc2ccc(/C(=N/O)c3ccccc3)cc21 [Enviroxime],therapeutic effects in clinical studies,[5]; clinical studies,insignificant or few therapeutic effects
same,pharmacokinetics in clinical studies,[5]; in vivo,bad
same,side effects in clinical studies,[5]; in vivo,unwanted side effects
"CC(=O)Oc1cc(Cl)ccc1C1(OC(C)=O)C(=O)c2ccccc2C1=O [Example 3, 2-(2-Acetoxy-1,3-dioxo-2,3-dihydro-1H-inden-2-yl)-5-chlorophenyl acetate]",melting point,,148 to 150 °C
same,EC50,[6],0.013 µg/mL
same,CC50,[4]; CC50,50.7 µg/mL
"CC(=O)Oc1cc(C)c(C)cc1C1(OC(C)=O)C(=O)c2ccccc2C1=O [Example 2, 2-(2-Acetoxy-1,3-dioxo-2,3-dihydro-1H-inden-2-yl)-4,5-dimethylphenyl acetate]",melting point,,206 to 207 °C
same,EC50,[6],< 1 µg/mL
same,CC50,[4]; CC50,> 100 µg/mL
CCOC(=O)/C=C/[C@H](C[C@@H]1CCNC1=O)NC(=O)[C@@H](CC(=O)[C@@H](NC(=O)c1cc(C)on1)C(C)C)Cc1ccc(F)cc1 [AG 7088],concentration range with an effect in the cell culture,[7],nanomolar concentration range
"CC(=O)NC1(c2ccc(C(C)C)cc2OC(=O)N(C)C)C(=O)c2ccccc2C1=O [Example 98, Dimethyl-carbamic acid 2-(2-acetylamino-1,3-dioxo-indan-2-yl)-5-isopropyl-phenyl ester]",CC50,[8],> 100 µg/mL
same,EC50,[3]; [15],0.013 µg/mL
Cc1cc(CCCCCOc2c(Cl)cc(C3=NCCO3)cc2Cl)on1 [WIN 54954],side effects,[9],skin rash
same,metabolization and excretion,[10],rapid
Cc1cc(CCCOc2c(C)cc(-c3noc(C(F)(F)F)n3)cc2C)on1 [Pleconaril],oral bioavailability,[11]; po,very good
Cc1cc(CCCCCCCOc2ccc(C3=NCCO3)cc2)on1 [disoxaril],bioavailability,[11],low
same,metabolization and excretion,[10],rapid
"CC(C)c1ccc(C2(NC(=O)c3ccccc3)C(=O)c3ccccc3C2=O)c(OC(=O)c2ccccc2)c1 [Example 70, 2-(2-Benzamido-1,3-dioxo-2,3-dihydro-1H-inden-2-yl)-5-isopropylphenyl benzoate]",melting point,,138 to 140 °C
same,EC50,[12],< 1 µg/mL
same,EC50,[2]; [16],< 0.01 µg/mL
same,EC50,[3]; [17],< 0.01 µg/mL
same,CC50,[4]; CC50,> 117 µg/mL
"CC(=O)NC1(c2ccc(C(C)C)cc2OC(=O)N(C)C)C(=O)c2cccc(N)c2C1=O (stereo not drawn) [Example 100, 2-(2-Acetamido-4-amino-1,3-dioxo-2,3-dihydro-1H-inden-2-yl)-5-isopropylphenyl dimethylcarbamate]",CC50,[8],> 100 µg/mL
same,EC50,[2]; [18],< 0.01 µg/mL
same,EC50,[3]; [15],< 0.01 µg/mL
CCC(=O)C(CCCCCCOc1ccc(OC)cc1Cl)C(=O)CC [arildone],bioavailability,[11],low
"CCCCCC(=O)NC1(c2ccc(C(C)C)cc2OC(=O)CCCCC)C(=O)c2cccc(N)c2C1=O (stereo not drawn) [Example 82, 2-(4-Amino-2-hexanamido-1,3-dioxo-2,3-dihydro-1H-inden-2-yl)-5-isopropylphenyl hexanoate]",EC50,[1],0.015 µg/mL
same,EC50,[2]; [13],< 0.02 µg/mL
same,EC50,[3]; [14],< 0.01 µg/mL
same,CC50,[4]; Picorna-virus CC50,> 100 µg/mL
"CCCCOC(=O)Oc1cc(C(C)C)ccc1C1(NC(C)=O)C(=O)c2cccc(N)c2C1=O (stereo not drawn) [Example 96, 2-(2-Acetamido-4-amino-1,3-dioxo-2,3-dihydro-1H-inden-2-yl)-5-isopropylphenyl butyl carbonate2-(2-acetamido-4-amino-1,3-dioxo-2,3-dihydro-1H-inden-2-yl)-5-isopropylphenyl butyl carbonate]",EC50,[1],0.03 µg/mL
same,EC50,[2]; [13],< 0.01 µg/mL
same,EC50,[3]; [14],< 0.01 µg/mL
same,CC50,[4]; Picorna-virus CC50,48.9 µg/mL
"CC(C)c1ccc(C2(OC(=O)N(C)C)C(=O)c3ccccc3C2=O)c(OC(=O)N(C)C)c1 [Example 31, Dimethyl-carbamic acid 2-(2-dimethylcarbamoyloxy-1,3-dioxo-indan-2-yl)-5-isopropyl-phenyl ester]",melting point,,203 to 205 °C
same,CC50,[8],> 100 µg/mL
"CCC(=O)NC1(c2ccc(C(C)C)cc2OC(=O)CC)C(=O)c2ccccc2C1=O [Example 68, 2-(1,3-Dioxo-2-propionamido-2,3-dihydro-1H-inden-2-yl)-5-isopropylphenyl propionate]",melting point,,173 to 175 °C
same,EC50,[12],< 1 µg/mL
same,EC50,[2]; [16],< 0.01 µg/mL
same,EC50,[3]; [17],< 0.01 µg/mL
same,CC50,[4]; CC50,66 µg/mL
"CCCCC(=O)NC1(c2ccc(C(C)C)cc2OC(=O)CCCC)C(=O)c2cccc(N)c2C1=O (stereo not drawn) [Example 81, 2-(4-amino-1,3-dioxo-2-pentanamido-2,3-dihydro-1H-inden-2-yl)-5-isopropylphenyl pentanoate]",EC50,[1],0.012 µg/mL
same,EC50,[2]; [13],< 0.01 µg/mL
same,EC50,[3]; [14],< 0.01 µg/mL
same,CC50,[4]; Picorna-virus CC50,41.3 µg/mL
"CCc1ccc(C2(OC(C)=O)C(=O)c3ccccc3C2=O)c(OC(C)=O)c1 [Example 6, 2-(2-Acetoxy-1,3-dioxo-2,3-dihydro-1H-inden-2-yl)-5-ethylphenyl acetate]",melting point,,136 to 137 °C
same,EC50,[6],< 0.01 µg/mL
same,EC50,[2]; [16],0.035 µg/mL
same,EC50,[3]; [17],< 0.01 µg/mL
same,CC50,[4]; CC50,23.5 µg/mL
"CNC(=O)Oc1cc(C(C)C)ccc1C1(NC(C)=O)C(=O)c2ccccc2C1=O [Example 97, 2-(2-Acetamido-1,3-dioxo-2,3-dihydro-1H-inden-2-yl)-5-isopropylphenyl methylcarbamate]",CC50,[8],45.1 µg/mL
same,EC50,[2]; [18],< 0.01 µg/mL
same,EC50,[3]; [15],< 0.01 µg/mL
